Test results as given in US12146134B2, “Microfluidic devices and methods of use in the formation and control of nanoreactors” (Bio-Rad Laboratories, Inc., priority 2006, dated 2024).
{Fluorescein} = fluorescein label; {Biotin} = biotin label

Tests used:
Oligonucleotide 102 = assay: measurement of DNA hybridization using fluorescence polarization (FP) on the microfluidic device; assay type: binding; settings: addition of oligonucleotide to the fluorescein-labeled 102
From the text: (A) FP can be used to measure the binding of 2 DNA molecules on the microfluidic device. (B) Oligonucleotide 102 is complement to both 101 and 103. […] Oligonucleotides; #101:[NT] ID NO: 1); #102: [NT] ID NO: 2); #103: [NT] NO: 3).

Steptaviden = Steptaviden (Streptomyces avidinii, UniProt P22629); assay: fluorescence polarization measurements in droplets inside the microfluidic device (biotin/streptavidin binding); settings: droplets 65 to 75 um, 10 mM Borate pH 9, data normalized so P(Fluorescein)=0.0
From the text: In addition to molecular beacons and Taqman, the devices of the present invention can be used to cany out fluorescence polarization as described herein. Most SNP assays can be adapted for both mini-sequencing and gene expression analysis. A series of fluorescence polarization measurements have been made inside a microfluidic device according to the present invention while looking at droplets containing Fluorescein, Fluorescein bound to biotin, and Fluorescein bound to biotin+Steptaviden. The fluorescence signal was split into two orthogonal polarizations: one parallel to the laser excitation polarization, and one perpendicular to the polarization. These signal were collected and analyzed to determine the change in polarization of the fluorescence for each of these binding conditions.
The Polarization is calculated from:
[formula] Where V=fluorescence signal polarized parallel to laser excitation polarization, and H=fluorescence signal polarized perpendicular.
The fluorescence station was modified to include cleanup polarizer for the laser and a polarizing beamsplitter with cleanup polarizers for collection. The two resulting fluorescence channels collect light with orthogonal polarizations (“Vertical” is parallel to the laser polarization, “Horizontal” is perpendicular to the laser polarization). […]

Steptaviden, sequence (P22629 25-183): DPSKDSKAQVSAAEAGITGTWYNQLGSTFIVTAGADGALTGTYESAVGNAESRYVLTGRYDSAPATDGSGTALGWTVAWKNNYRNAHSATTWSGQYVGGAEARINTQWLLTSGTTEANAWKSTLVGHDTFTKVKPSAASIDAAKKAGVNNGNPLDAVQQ

| Molecule | shift of mP value of labeled 102, indicative of binding (Oligonucleotide 102) | Polarization (mean of histogram grouping) (Steptaviden) [mP] |
| --- | --- | --- |
| 103: 5′ Fluorescein-labeled oligonucleotide, SEQ ID NO: 3 (DNA CTAAACTCCTGATTTATGCTGCATCCATTTTGC; DNA, 5' {Fluorescein}, backbone not given here) [compound 103] | shifts the mP value | – |
| Biotinylated Fluorescein [Biotinalated Fluorescein] | – | 18.4 |
| 101: 5′ Biotin-labeled oligonucleotide, SEQ ID NO: 1 (nucleic acid, DNA, 5' {Biotin}, backbone not given here) DNA: ATCCGCCCCAGCAGCTGCCAGGCACAGCCCCTAAACTCCTGATTTATGCTGCATCCATTTTGC | shifts the mP value | – |
